Test results as given in article PMC4382718 (Carbohydrate research, 2015).
Read-outs that look alike come from different tables or passages of the source.

What was measured:
[1] = target: T1, dGMIIb (Drosophila melanogaster Co(II)-activated Golgi α-mannosidase IIb) (Drosophila melanogaster, UniProt Q9VF33); experiment: Class II α-mannosidase inhibition assay; type: biochemical
T1 sequence (Q9VF33 31-1249): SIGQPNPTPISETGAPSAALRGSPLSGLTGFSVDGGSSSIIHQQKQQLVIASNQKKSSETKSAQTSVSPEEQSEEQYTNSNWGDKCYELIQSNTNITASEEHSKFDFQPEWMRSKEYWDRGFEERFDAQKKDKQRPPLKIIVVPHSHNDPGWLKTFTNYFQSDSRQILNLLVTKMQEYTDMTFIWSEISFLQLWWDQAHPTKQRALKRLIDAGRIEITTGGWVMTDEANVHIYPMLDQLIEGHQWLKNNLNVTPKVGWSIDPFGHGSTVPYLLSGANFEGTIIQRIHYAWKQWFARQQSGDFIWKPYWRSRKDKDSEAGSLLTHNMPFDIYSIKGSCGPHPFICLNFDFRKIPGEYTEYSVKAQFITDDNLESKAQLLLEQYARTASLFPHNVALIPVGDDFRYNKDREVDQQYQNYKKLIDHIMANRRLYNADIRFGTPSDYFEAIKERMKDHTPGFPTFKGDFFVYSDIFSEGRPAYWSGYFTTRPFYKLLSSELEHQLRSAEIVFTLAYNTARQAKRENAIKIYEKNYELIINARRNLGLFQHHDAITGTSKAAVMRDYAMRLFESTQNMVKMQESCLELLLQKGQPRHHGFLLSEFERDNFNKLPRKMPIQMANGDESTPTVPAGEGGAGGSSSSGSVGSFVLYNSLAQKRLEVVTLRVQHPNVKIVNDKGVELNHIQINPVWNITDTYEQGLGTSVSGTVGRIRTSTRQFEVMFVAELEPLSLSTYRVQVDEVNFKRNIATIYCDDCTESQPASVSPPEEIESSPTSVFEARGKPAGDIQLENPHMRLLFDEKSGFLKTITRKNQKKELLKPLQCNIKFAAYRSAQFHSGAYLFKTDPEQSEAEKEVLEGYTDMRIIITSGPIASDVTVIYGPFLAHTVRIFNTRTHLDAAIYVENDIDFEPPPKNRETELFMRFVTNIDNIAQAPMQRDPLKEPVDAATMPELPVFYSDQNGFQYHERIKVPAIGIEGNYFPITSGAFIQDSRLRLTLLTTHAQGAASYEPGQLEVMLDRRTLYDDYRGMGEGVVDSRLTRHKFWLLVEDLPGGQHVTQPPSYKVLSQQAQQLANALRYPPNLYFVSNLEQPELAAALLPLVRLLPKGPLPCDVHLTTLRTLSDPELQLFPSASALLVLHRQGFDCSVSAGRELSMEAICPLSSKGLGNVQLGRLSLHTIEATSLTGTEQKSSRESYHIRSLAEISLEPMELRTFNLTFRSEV

[2] = target: T2, dLManII (Drosophila melanogaster lysosomal α-mannosidase II) (Drosophila melanogaster, UniProt Q9VKV1); experiment: Class II α-mannosidase inhibition assay; type: biochemical
T2 sequence (Q9VKV1 25-1080): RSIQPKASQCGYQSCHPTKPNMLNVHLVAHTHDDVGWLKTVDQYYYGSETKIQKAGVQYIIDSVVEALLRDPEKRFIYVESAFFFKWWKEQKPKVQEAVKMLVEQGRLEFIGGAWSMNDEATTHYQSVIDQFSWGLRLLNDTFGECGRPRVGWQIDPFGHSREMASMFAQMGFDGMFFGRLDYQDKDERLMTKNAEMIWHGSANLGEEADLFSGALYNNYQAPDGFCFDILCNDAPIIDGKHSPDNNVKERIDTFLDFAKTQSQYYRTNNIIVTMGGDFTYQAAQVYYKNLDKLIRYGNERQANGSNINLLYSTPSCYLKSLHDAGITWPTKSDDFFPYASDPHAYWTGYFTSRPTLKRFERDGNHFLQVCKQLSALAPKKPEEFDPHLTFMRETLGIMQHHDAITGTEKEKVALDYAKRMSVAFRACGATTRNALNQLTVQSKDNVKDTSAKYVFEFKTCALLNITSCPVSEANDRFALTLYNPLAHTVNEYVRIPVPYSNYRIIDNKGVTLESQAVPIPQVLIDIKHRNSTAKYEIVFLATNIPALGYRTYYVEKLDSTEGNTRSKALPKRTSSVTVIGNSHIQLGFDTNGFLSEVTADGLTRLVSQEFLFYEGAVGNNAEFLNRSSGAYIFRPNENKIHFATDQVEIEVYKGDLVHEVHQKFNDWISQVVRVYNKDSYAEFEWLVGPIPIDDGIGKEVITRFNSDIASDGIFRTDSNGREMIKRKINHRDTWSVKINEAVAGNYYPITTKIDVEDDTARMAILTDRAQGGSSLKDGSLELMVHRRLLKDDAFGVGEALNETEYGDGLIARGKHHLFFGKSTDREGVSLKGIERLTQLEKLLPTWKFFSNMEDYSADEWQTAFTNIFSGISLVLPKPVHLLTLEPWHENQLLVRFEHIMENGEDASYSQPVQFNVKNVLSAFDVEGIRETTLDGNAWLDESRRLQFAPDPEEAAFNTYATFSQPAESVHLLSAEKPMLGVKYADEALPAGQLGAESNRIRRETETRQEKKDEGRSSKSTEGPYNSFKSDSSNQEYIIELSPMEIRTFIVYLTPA

[3] = target: T3, jack bean α-mannosidase (JBMan) (Canavalia ensiformis, UniProt C0HJB3); experiment: Jack bean α-mannosidase inhibition assay; type: biochemical
T3 sequence (C0HJB3 1-981): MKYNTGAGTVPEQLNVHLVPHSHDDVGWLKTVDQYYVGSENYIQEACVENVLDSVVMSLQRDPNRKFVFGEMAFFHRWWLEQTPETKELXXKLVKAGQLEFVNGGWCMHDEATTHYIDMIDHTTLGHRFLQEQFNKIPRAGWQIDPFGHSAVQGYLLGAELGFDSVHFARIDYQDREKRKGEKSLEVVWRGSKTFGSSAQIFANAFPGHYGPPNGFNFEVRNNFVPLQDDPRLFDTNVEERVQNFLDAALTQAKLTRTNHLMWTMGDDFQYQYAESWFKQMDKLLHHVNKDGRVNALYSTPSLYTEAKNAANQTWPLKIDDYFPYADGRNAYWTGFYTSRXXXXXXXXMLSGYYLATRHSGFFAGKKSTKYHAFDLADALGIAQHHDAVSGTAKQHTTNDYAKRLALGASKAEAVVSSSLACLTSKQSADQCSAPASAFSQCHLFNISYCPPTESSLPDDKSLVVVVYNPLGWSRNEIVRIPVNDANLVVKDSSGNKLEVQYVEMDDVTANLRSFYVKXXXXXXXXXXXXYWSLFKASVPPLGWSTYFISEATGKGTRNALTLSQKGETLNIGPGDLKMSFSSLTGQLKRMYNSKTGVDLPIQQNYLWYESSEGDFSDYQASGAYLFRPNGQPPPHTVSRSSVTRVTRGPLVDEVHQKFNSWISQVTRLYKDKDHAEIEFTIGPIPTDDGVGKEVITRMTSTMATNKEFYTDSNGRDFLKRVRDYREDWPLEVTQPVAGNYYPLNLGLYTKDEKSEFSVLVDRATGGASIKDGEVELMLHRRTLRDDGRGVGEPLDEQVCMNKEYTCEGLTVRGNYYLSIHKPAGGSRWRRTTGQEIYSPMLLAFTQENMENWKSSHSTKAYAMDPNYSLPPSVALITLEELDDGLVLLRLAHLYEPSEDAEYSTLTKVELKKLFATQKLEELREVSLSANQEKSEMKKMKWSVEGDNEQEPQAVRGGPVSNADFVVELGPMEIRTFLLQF

[4] = target: T4, Aspergillus saitoi α1,2-mannosidase (AspMan) (Aspergillus phoenicis, UniProt Q12563); type: biochemical
T4 sequence (Q12563 22-513): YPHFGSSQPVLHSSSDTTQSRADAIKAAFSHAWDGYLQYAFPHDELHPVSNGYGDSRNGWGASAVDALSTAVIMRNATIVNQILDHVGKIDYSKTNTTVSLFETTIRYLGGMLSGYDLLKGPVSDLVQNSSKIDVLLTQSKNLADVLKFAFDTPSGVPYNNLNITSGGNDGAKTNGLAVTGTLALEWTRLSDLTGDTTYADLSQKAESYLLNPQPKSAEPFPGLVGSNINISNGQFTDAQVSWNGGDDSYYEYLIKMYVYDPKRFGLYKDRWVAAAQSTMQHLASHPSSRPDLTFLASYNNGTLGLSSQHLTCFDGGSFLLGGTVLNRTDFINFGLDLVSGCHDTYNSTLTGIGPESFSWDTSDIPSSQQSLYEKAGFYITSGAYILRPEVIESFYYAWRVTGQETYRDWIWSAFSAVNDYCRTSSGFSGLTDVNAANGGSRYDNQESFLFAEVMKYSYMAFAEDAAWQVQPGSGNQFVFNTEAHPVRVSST

[5] = target: T1, dGMIIb (Drosophila melanogaster Co(II)-activated Golgi α-mannosidase IIb); conditions: cited from earlier work
[6] = target: T3, jack bean α-mannosidase (JBMan); conditions: read-out: IC50 JBMan, cited from earlier work
[7] = target: dGMII (Drosophila melanogaster α-mannosidase II); conditions: read-out: Ki dGMII (printed in dGMIIb column); ref Shah et al.[41]; cited from earlier work

Structure (SMILES) | IC50 [1] | IC50 [2] | IC50 [3] | IC50 [4] | also measured
OC[C@H]1O[C@H](n2cc(-c3ccccc3)nn2)[C@@H](O)[C@@H](O)[C@@H]1O [Compound 6, 1-α-D-mannopyranosyl-4-phenyl-1,2,3-triazole] | 5000 µM | 5000 µM | 400 µM | 50 µM | selectivity ratio [IC50(GH38)/IC50(GH47)] ([4]; GH38 mannosidases vs GH47 AspMan): 100
OC[C@H]1O[C@H](n2cc(Cc3ccccc3)nn2)[C@@H](O)[C@@H](O)[C@@H]1O [Compound 7, 4-Benzyl-1-α-D-mannopyranosyl-1,2,3-triazole] | 5000 µM | 500 µM | 1100 µM | 100 µM | –
OC[C@H]1O[C@H](n2cc(CCc3ccccc3)nn2)[C@@H](O)[C@@H](O)[C@@H]1O [Compound 8, 1-α-D-mannopyranosyl-4-(2-phenylethyl)-1,2,3-triazole] | 6000 µM | 5000 µM | 400 µM | 250 µM | –
O=S(=O)(Cc1ccccc1)[C@H]1O[C@H](CO)[C@@H](O)[C@H](O)[C@@H]1O [Compound 9, benzyl α-D-mannopyranosyl sulfone] | – | – | – | – | IC50 ([3]; read-out: IC50 JBMan, pNP-Manp substrate, pH 4.5): 2000 µM; IC50 ([5]; read-out: IC50 dGMIIb, ref Poláková et al.[30]): 2000 µM; selectivity GMII vs LM ([5]; ref [30]): selective towards GMII
O=C1N[C@@H]2[C@@H](O)[C@@H](O)[C@H](O)[C@@H](CO)N2C1=O [Kifunensine] | – | – | – | – | IC50 ([6]; ref Kayakiri et al.[42]): 120 µM; Ki [7]: 5200 µM
CS[C@@H]1[C@@H](N)[C@@H](O)[C@@H](O)[C@H]1O [Mannostatin A, reference compound] | 0.15 µM | 3 µM | – | – | IC50 ([6]; ref Ogawa et al.[44]): 0.24 µM
